Here are results for eight compounds from PubChem BioAssay (NCI).

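Method: 48-hour compound exposure of cells in 96-well plates, five concentrations, linear interpolation of endpoints. TGI marks complete inhibition of growth.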 Bounds are passed on as bounds.

Among the test systems are BT-549 breast; CAKI-1 renal; CCRF-CEM leukemia; COLO 205 colon; HOP-62 NSCLC; HOP-92 NSCLC; IGROV1 ovarian; M14 melanoma; MDA-N; MOLT-4 leukemia; NCI-H522 lung; OVCAR-4 ovarian; OVCAR-5 ovarian; T-47D breast; TK-10 renal; U251 CNS; UACC-257 melanoma; MDA-MB-435; RPMI-8226 leukemia.
What all share (assay): NCI tumour cell line growth inhibition, 48 h

In the case of `CC1C2CC(CC2(C)O)C1(C)C` (stereo not given), the TGI in the test with BT-549 breast, with CAKI-1 renal, in the test with CCRF-CEM leukemia, in the test on COLO 205 colon, with HOP-62 NSCLC and in the test on HOP-92 NSCLC was > 100 µM each time. Moreover, the TGI in the test on IGROV1 ovarian, with M14 melanoma, in the test with MDA-N, in the test with MOLT-4 leukemia, in the test with NCI-H522 lung and in the test on OVCAR-4 ovarian was > 100 µM throughout. The TGI with OVCAR-5 ovarian, with T-47D breast, in the test with TK-10 renal, in the test with U251 CNS and with UACC-257 melanoma was > 100 µM in each case.
With `COc1cc2c(c(O)c1OC)C(=O)[C@@H]1CCC(=O)N1C2c1ccccc1` (stereo not given in full), the TGI in the test with BT-549 breast, in the test with CAKI-1 renal, in the test with CCRF-CEM leukemia, in the test on COLO 205 colon, in the test on HOP-62 NSCLC and with IGROV1 ovarian was > 100 µM each time. The TGI in the test on M14 melanoma, in the test on MDA-MB-435, in the test on MDA-N, in the test on MOLT-4 leukemia, with NCI-H522 lung and with OVCAR-4 ovarian was > 100 µM in each case. The TGI in the test on OVCAR-5 ovarian, in the test on RPMI-8226 leukemia, in the test with T-47D breast, in the test with TK-10 renal, in the test with U251 CNS and with UACC-257 melanoma was > 100 µM each time.
Take `CC(NCc1c(O)ccc2ccc(=O)oc12)C(=O)O` (stereo not given): the TGI with CAKI-1 renal, in the test on CCRF-CEM leukemia, in the test with COLO 205 colon, in the test with HOP-62 NSCLC, in the test with HOP-92 NSCLC and with IGROV1 ovarian was > 100 µM each time. Also, the TGI with M14 melanoma, in the test on MDA-MB-435, in the test on MDA-N, in the test on MOLT-4 leukemia, in the test on NCI-H522 lung and in the test on OVCAR-4 ovarian was > 100 µM each time. For the same compound, the TGI with OVCAR-5 ovarian, with RPMI-8226 leukemia, in the test on T-47D breast, in the test with TK-10 renal, with U251 CNS and in the test on UACC-257 melanoma was > 100 µM each time.
Turning to `Cc1ccc(OCC2OC(n3cnc4nc(Nc5ccc(Cl)c(Cl)c5)nc(Cl)c43)CC2Oc2ccc(C)cc2)cc1` (stereo not given), the TGI in the test on BT-549 breast, in the test with CAKI-1 renal, in the test with CCRF-CEM leukemia, in the test on COLO 205 colon, in the test on HOP-62 NSCLC and in the test on IGROV1 ovarian was > 100 µM throughout. Also, the TGI in the test with M14 melanoma, with MDA-MB-435, in the test with MDA-N, in the test on MOLT-4 leukemia, with OVCAR-4 ovarian and with OVCAR-5 ovarian was > 100 µM each time. Also, the TGI with RPMI-8226 leukemia, in the test on T-47D breast, in the test on TK-10 renal, in the test on U251 CNS and in the test with UACC-257 melanoma was > 100 µM each time.
Regarding `CNC(=O)C1(C#N)C(c2ccccc2)C(C#N)(C(=O)NC)C1c1ccccc1` (stereo not given), the TGI in the test with CAKI-1 renal, with CCRF-CEM leukemia, with COLO 205 colon, in the test with HOP-62 NSCLC, in the test with HOP-92 NSCLC and in the test with IGROV1 ovarian was > 100 µM throughout. In addition, the TGI with M14 melanoma, in the test with MDA-MB-435, in the test on MDA-N, in the test on MOLT-4 leukemia, with NCI-H522 lung and with OVCAR-4 ovarian was > 100 µM throughout. Further, the TGI with OVCAR-5 ovarian, in the test on RPMI-8226 leukemia, with T-47D breast, in the test with TK-10 renal and in the test with U251 CNS was > 100 µM each time.
On to `COc1ccc2nc3c([N+](=O)[O-])ccc4c3c(c2c1)NCCN4CCN(C)C`, for which the TGI in the test with BT-549 breast came to 3.39 µM; with CAKI-1 renal it was 7.35 µM; in the test with CCRF-CEM leukemia, 4 µM; with HOP-62 NSCLC it was 3.44 µM; in the test on HOP-92 NSCLC, 2.73 µM; in the test on IGROV1 ovarian, 3.15 µM. For the same compound, the TGI worked out at 1.71 µM in the test with M14 melanoma; 3.49 µM in the test with MDA-MB-435; 1.99 µM in the test with MDA-N; 7.67 µM with MOLT-4 leukemia; 0.697 µM in the test on OVCAR-4 ovarian; 9.89 µM in the test with OVCAR-5 ovarian. The TGI with RPMI-8226 leukemia was determined as 4.62 µM; in the test with TK-10 renal, 4.75 µM; with U251 CNS it was 2.54 µM; in the test on UACC-257 melanoma it was 4.58 µM.
On to `Oc1[nH]c(=S)[nH]c1/C=C1/C(c2ccccc2)=Nc2ccccc21`, for which the TGI in the test on BT-549 breast came to 28.6 µM; in the test on CAKI-1 renal, 37.5 µM; in the test on COLO 205 colon, 31.8 µM; in the test on HOP-62 NSCLC it was 29.1 µM; in the test on IGROV1 ovarian, 30.3 µM; with MDA-MB-435, 26.7 µM. The TGI with MDA-N stood at 28.4 µM; in the test on MOLT-4 leukemia, 32.1 µM; in the test with NCI-H522 lung it was 26.3 µM; in the test on OVCAR-4 ovarian, 57.4 µM; with OVCAR-5 ovarian, 36.1 µM; in the test on RPMI-8226 leukemia it was 36.2 µM. The TGI in the test with TK-10 renal was determined as 44.5 µM; in the test with U251 CNS it was 34.9 µM; in the test with UACC-257 melanoma, 29 µM.
As for `CCOC(=O)C1(C/C=C/CCl)CCCC1=O` (stereo not given), the TGI was 40.8 µM in the test with BT-549 breast; 79.5 µM in the test on CAKI-1 renal; > 100 µM with CCRF-CEM leukemia; 72.9 µM with COLO 205 colon; 45.1 µM in the test with HOP-62 NSCLC; 42 µM in the test on IGROV1 ovarian. Also, the TGI in the test with M14 melanoma was 38.5 µM; in the test with MDA-MB-435, 44 µM; with MDA-N, 35.1 µM; in the test on MOLT-4 leukemia, > 100 µM; with NCI-H522 lung, 47 µM; in the test with OVCAR-4 ovarian, 93.7 µM. Further, the TGI in the test on OVCAR-5 ovarian was 39.1 µM; in the test with T-47D breast, 51.3 µM; with TK-10 renal, 68.4 µM; with U251 CNS, 86.7 µM; with UACC-257 melanoma, > 100 µM.
